Reference: patent US20240207265A1, “TREATMENT OF CNS DISEASES WITH sGC STIMULATORS” (Tisento Therapeutics Inc., priority 2021, published 2024)

Biological target: T1, human α2β1 sGC isozyme (Homo sapiens, UniProt P33402+Q02153)
T1 construct: host or cells: CHO-K1
T1 sequence (P33402 1-732): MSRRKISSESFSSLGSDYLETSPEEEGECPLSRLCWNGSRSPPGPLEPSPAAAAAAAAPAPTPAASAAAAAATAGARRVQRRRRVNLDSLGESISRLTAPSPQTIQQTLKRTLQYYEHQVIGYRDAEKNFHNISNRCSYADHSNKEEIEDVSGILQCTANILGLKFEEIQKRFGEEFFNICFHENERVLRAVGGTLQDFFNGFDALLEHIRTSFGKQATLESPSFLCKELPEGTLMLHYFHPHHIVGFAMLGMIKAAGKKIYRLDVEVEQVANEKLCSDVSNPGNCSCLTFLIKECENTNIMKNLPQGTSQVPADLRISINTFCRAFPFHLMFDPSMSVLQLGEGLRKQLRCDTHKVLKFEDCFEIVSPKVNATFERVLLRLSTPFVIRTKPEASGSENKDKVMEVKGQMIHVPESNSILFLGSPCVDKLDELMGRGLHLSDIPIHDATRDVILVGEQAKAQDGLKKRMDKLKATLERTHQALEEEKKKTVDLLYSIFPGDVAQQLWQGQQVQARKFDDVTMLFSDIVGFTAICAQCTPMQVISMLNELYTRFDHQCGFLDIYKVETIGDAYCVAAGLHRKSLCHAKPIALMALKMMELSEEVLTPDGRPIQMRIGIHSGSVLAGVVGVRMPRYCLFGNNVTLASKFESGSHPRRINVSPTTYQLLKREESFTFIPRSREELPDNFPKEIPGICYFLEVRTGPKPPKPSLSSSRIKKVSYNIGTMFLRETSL
T1 sequence (Q02153 1-619): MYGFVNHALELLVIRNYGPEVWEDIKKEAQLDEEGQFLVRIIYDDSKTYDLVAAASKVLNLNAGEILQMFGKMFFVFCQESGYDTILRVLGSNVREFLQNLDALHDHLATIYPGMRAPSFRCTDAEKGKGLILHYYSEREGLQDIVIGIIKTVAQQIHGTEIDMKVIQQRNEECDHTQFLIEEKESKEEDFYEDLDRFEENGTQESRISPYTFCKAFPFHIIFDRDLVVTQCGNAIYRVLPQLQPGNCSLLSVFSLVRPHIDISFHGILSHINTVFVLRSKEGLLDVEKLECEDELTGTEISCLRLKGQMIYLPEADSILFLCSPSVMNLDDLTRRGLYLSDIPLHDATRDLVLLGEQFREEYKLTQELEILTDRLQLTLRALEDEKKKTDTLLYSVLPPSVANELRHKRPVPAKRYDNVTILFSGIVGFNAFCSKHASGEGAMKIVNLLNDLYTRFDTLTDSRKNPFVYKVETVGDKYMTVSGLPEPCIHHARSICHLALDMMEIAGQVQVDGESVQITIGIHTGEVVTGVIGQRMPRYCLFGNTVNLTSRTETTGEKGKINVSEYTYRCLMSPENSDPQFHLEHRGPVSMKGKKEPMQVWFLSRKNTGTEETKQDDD
Test: cGMP assay in CHO-K1 cells stably expressing human α2β1 sGC isozyme
Assay type: cell-based
Conditions: 10 μM DETA-NONOate
Protocol: sGC stimulators were dissolved in DMSO as a 10 mM solution and stored at −20° C. To achieve desired test concentrations, stock concentrations were serially diluted into DMSO and then diluted to the appropriate concentration in assay buffer.
CHO-K1 cells stably transfected with human α2β1 sGC isozyme (generated by GenScript for Ironwood) were cultured in F-12K medium (ATCC catalog #30-2004) with 10% fetal calf serum, 4 μg/mL puromycin (Gibco catalog #A11138-03) and 0.4 mg/mL of geneticin (Gibco catalog #10131-027) in a 95% humidified atmosphere containing 5% CO2 in air at 37° C. For GC activity assays, cells were seeded in 384 well poly-D-lysine coated flat bottom plates (Fisher Scientific #08-774-311) in either 50 μL or 70 μL medium at a density of either 3×10^4 cells/well or 15×10^3, respectively. Cells were incubated for 24 hours at 37° C. in a humidified chamber supplemented with 5% CO2.
For each test concentration, the compound was diluted in 100% DMSO to 100-fold of its final assay concentration. Immediately prior to the assay, the solution was diluted 20-fold into HBSS containing calcium, magnesium, and 50 μM DETA-NONOate (5× the final assay concentration). Medium was removed and cells were washed once with 40 μL of HBSS. Cells were then incubated with 40 μL of a solution containing 0.5 mM IBMX in HBSS for 15 min at 37° C. 10 μL from the sGC stimulator/HBSS/DETA-NONOate plate was added to the cells, which were incubated for an additional 20 min at 37° C. Final DMSO concentration was 1%, final DETA-NONOate concentration was 10 μM; and final compound concentrations were 30,000 nM, 6000 nM, 1200 nM, 240 nM, 48 nM, 9.6 nM, 1.92 nM, 0.384 nM, 0.077 nM, 0.015 nM, or 0.003 nM.
Following incubation with compound, assay buffer was removed and 50 μL of ice-cold 10% acetic acid+150 ng/mL internal standard (+3 cGMP) was added to each well. Samples were incubated on ice for 30-60 min. Following centrifugation at 4° C. for 5 min at 1000×g to pellet cell debris, the supernatant was transferred to a clean plate and the samples analyzed for cGMP content.
Data were analyzed with a 4-parameter fit (log(agonist) vs. response-variable slope) using GraphPad Prism Software v.8. The EC50 was interpolated from the curve fit and is defined as the concentration at which the compound elicits 50% of its maximal response. When the experiment was carried out multiple times for a given compound, the geometrical mean of all experiments is reported.

Compound | EC50 [nM]
Oc1nc(-c2cn3ccnc3c(Cc3ccccc3)n2)ncc1F [Compound I-2, 2-(8-Benzylimidazo[1,2-a]pyrazin-6-yl)-5-fluoropyrimidin-4-ol] | 100 to 1000
Oc1nc(-c2cn3ccnc3c(Cc3cccc(F)c3F)n2)ncc1F [Compound I-4, 2-(8-(2,3-Difluorobenzyl)imidazo[1,2-a]pyrazin-6-yl)-5-fluoropyrimidin-4-ol] | ≤ 100
Oc1nc(-c2cn3c(F)cnc3c(Cc3cc(F)ccc3F)n2)ncc1F [Compound I-5] | ≤ 100
Cc1cc(F)c(Cc2nc(-c3nccc(O)n3)cn3ccnc23)cc1F [Compound I-15, 2-(8-(2,5-difluoro-4-methylbenzyl)imidazo[1,2-a]pyrazin-6-yl)pyrimidin-4-ol] | 100 to 1000
Oc1nc(-c2cn3ccnc3c(Cc3cc(F)ccc3F)n2)ncc1Cl [Compound I-16, 5-chloro-2-(8-(2,5-difluorobenzyl)imidazo[1,2-a]pyrazin-6-yl)pyrimidin-4-ol] | ≤ 100
Cc1cc(F)c(Cc2nc(-c3ncc(F)c(O)n3)cn3c(F)cnc23)cc1F [Compound I-18] | ≤ 100
Cc1cc(F)c(Cc2nc(-c3ncc(F)c(O)n3)cn3ncnc23)cc1F [Compound I-19, 5-Fluoro-2-(8-(2,5-difluoro-4-methylbenzyl)-[1,2,4]triazolo[1,5-a]pyrazin-6-yl)pyrimidin-4-ol] | ≤ 100
Oc1nc(-c2cn3ccnc3c(Cc3cc(F)ccc3F)n2)ncc1F [Compound I-20, 5-fluoro-2-(8-(2,5-difluorobenzyl)imidazo[1,2-a]pyrazin-6-yl)pyrimidin-4-ol] | ≤ 100
Oc1nc(-c2cn3ccnc3c(Cc3ccccc3F)n2)ncc1F [Compound I-21] | ≤ 100
Oc1nc(-c2cn3ncnc3c(Cc3ccccc3F)n2)ncc1F [Compound I-23] | 100 to 1000
